{"source": "a melting point compilation (Tetko et al.; mined from patent text by program, amines drawn as free bases though some values may be those of a salt)", "data": [{"units": {"melting point": "°C"}, "values": [{"compound": "Nc1ncc(Cl)c(Cl)c1Cl", "melting point": "160 to 162"}, {"compound": "COc1nc(Cl)cc(I)c1C=O", "melting point": "120 to 124"}, {"compound": "CN(C)C(=O)C1CC(c2ccc(-c3ccc(N4C[C@H](Cn5ccnn5)OC4=O)cc3F)cn2)=NO1", "note": "(some centres undefined)", "melting point": "180 to 190"}, {"compound": "C#CCN(c1ccc(C(=O)NC(CCc2nnn[nH]2)C(=O)O)cc1)C(C)c1cc2c(=O)[nH]c(C)nc2cc1C", "note": "(centres undefined)", "melting point": 207}, {"compound": "NCCON=C1c2ccccc2C2CC2c2ccccc21", "note": "(centres undefined)", "melting point": "133 to 134"}, {"compound": "CCOc1cc(-c2cc(C(F)(F)F)n3ncc(C(=O)O)c3n2)ccc1C(F)(F)F", "melting point": 264}, {"compound": "COc1ccc(-c2oncc2CO)cc1", "melting point": "57 to 58"}, {"compound": "Cc1cc2c(cc1Cl)C(Br)(c1ccccc1Cl)C(=O)N2", "note": "(centres undefined)", "melting point": "109 to 111"}, {"compound": "CCOC(=O)c1sc(C)c2nc(OCC)n(Cc3ccc(-c4ccccc4C#N)cc3)c12", "melting point": "153 to 155"}, {"compound": "CCOC(=O)c1ccc(Br)c(OC(F)F)c1Br", "melting point": "45 to 47"}, {"compound": "O=C(c1ccc(Cl)cc1)c1ccc2c(c1)C(=O)N(Cc1cccnc1)C2=O", "melting point": "132 to 134"}, {"compound": "Nc1c2c(nn1-c1ccc(Cl)cc1)CCCC2", "melting point": "140 to 142"}, {"compound": "CC12CCC(C1)C1(C)Oc3ccc(C(=O)/C=C/c4ccc(C(=O)O)cc4)cc3C21C", "note": "(centres undefined)", "melting point": "225 to 227"}, {"compound": "CC(=O)Nc1cc(C)c(OC(C)=O)cc1C", "melting point": 177}, {"compound": "CNC(=O)CC=C(CC(C)C)C(=O)O", "melting point": "120 to 122"}, {"compound": "Cc1cc(-c2ccc(S(C)(=O)=O)cc2)n(-c2ccc(-c3ccoc3)cc2)c1", "melting point": "154 to 156"}, {"compound": "CS(=O)(=S)OCc1ccc(C(=O)O)cc1", "note": "(centres undefined)", "melting point": 188}, {"compound": "COc1ccccc1-c1n[nH]c2ccccc12", "melting point": 99}, {"compound": "Cc1cc2c(c3c(=O)cc(C(=O)O)oc13)OC(C)(C)c1cc(S(=O)(=O)O)ccc1-2", "melting point": "264 to 266"}, {"compound": "CC(=O)c1cc(N2CCOCC2)ccc1NC(=O)c1ccccc1OCc1ccccc1", "melting point": "144 to 146"}, {"compound": "Cc1cc(O)ccc1-c1ccc(N)cc1", "melting point": "156 to 157"}, {"compound": "COc1ccc(-c2ccc3c(C)c(OC)ccc3c2)cc1", "melting point": "136 to 138"}, {"compound": "O=C(O)c1c(Oc2ccc(F)cc2)cccc1Oc1ccc2c(c1)OCO2", "melting point": "164 to 166"}, {"compound": "Fc1cccc(Cl)c1-c1c(Cl)cc(-n2cncn2)nc1Cl", "melting point": 210}, {"compound": "COc1ccccc1CNc1ccc2c(-c3noc(C)n3)cccc2n1", "melting point": 122}, {"compound": "CCN(C)C(N)=C(C#N)C(N)=S", "melting point": "121 to 124"}, {"compound": "COP(=O)(OC)[C@H](C)NC(=O)[C@H](C)NC(=O)[C@H](C)NC(=O)CNC(=O)OCc1ccccc1", "melting point": "162 to 164"}, {"compound": "Cn1c(C(F)(F)F)cc(=O)n(-c2ccc3snc(-c4sccc4CO)c3c2)c1=O", "melting point": "168 to 169"}, {"compound": "O=C(O)COCCN(C1CC1)S(=O)(=O)c1ccccc1Cl", "melting point": 115}, {"compound": "COc1cc(-c2cc(-c3ccc(-c4c(Cc5ccccc5)sc5ccccc45)cc3)ccc2OCC(=O)O)cc(OC)c1OC", "melting point": "93 to 94"}, {"compound": "O=C(/C=C/c1cccnc1)NCCc1cccc(O)c1", "melting point": "163 to 164"}, {"compound": "O=C(Oc1cccc2ccccc12)n1c2c(c(=O)n(C3CCCCO3)c1=O)CCC2", "note": "(centres undefined)", "melting point": 160}, {"compound": "COc1ccccc1NC(=O)Nc1nc(Nc2ccc(CC(=O)O)cc2)nc(Oc2ccc3ccccc3c2)n1", "melting point": "232 to 240"}, {"compound": "CC(C)Oc1ccc(F)c(N2C(=O)C3=C(CCCC3)C2=O)c1", "melting point": 62.8}, {"compound": "CCCCCCc1ccc(OCCCCCCCCCCCCCCCC(=O)NCCO)cc1O", "melting point": 96.4}, {"compound": "Cc1ccccc1C(Oc1cc(OCc2cncs2)ccc1C#N)C(=O)O", "note": "(centres undefined)", "melting point": "226 to 227"}, {"compound": "C=C(C)C(=O)OCCCCc1cc(-c2ccc(OC(=O)C(=C)C)cc2)ccc1OC(=O)C(=C)C", "melting point": 76}, {"compound": "CN(C)c1ccc(C(=O)Nc2ccc3ccc(Cl)nc3n2)cc1", "melting point": 248}, {"compound": "CC1(C)CCC(C)(C)c2cc3oc(-c4ccc(C(=O)O)cc4)nc3cc21", "melting point": 290}, {"compound": "O=C(CCl)c1ccc(Oc2ccc(C(=O)CCl)cc2)cc1", "melting point": "129 to 130"}, {"compound": "CCOC(=O)c1c(Cn2cncn2)nc2cc(OC)c(OC)cc2c1-c1ccc(OC)cc1", "melting point": "150 to 151"}, {"compound": "C=CCCC1(C(F)(F)F)OC(=O)Nc2ccc(Cl)cc21", "note": "(racemic)", "melting point": "165 to 166"}, {"compound": "N#CC1CC(C#N)(c2ccc(OC(F)F)c(OCC3CC3)c2)CCC1=O", "note": "(centres undefined)", "melting point": "142 to 143"}, {"compound": "O=[N+]([O-])c1cc2nc(O)c(O)nc2c2ncccc12", "melting point": "> 300"}, {"compound": "COC(=O)c1c(O)cc(OCC(=O)c2ccc3c(c2)C(C)(C)CCC3(C)C)cc1O", "melting point": "162 to 163"}, {"compound": "CCOC(=O)N1CCc2nc3ccccc3c(Cl)c2CC1", "melting point": 104}, {"compound": "CC(C)(Oc1ccc(C#N)cc1)C(O)Cc1cnccn1", "note": "(centres undefined)", "melting point": "94 to 95"}, {"compound": "CCS(=O)(=O)N(C)C1c2cc(F)c(Cl)cc2OC(C)(C)C1OC(C)=O", "note": "(centres undefined)", "melting point": "143 to 144"}, {"compound": "CC(C)(c1ccccc1)c1ccc(O)c(-n2nc3ccccc3n2)c1", "melting point": "119 to 121"}]}]}
